Earlier results as cited in patent US20200237789A1, “COMBINATION THERAPY FOR PREVENTING ADDICTION” (Amygdala Neurosciences, Inc., priority 2017, published 2020).

Columns and labels:
hMAO-A = target: T1, hMAO-A (Homo sapiens, UniProt P21397); conditions: read-out: IC50 hMAO-A
T1 sequence (P21397 1-527): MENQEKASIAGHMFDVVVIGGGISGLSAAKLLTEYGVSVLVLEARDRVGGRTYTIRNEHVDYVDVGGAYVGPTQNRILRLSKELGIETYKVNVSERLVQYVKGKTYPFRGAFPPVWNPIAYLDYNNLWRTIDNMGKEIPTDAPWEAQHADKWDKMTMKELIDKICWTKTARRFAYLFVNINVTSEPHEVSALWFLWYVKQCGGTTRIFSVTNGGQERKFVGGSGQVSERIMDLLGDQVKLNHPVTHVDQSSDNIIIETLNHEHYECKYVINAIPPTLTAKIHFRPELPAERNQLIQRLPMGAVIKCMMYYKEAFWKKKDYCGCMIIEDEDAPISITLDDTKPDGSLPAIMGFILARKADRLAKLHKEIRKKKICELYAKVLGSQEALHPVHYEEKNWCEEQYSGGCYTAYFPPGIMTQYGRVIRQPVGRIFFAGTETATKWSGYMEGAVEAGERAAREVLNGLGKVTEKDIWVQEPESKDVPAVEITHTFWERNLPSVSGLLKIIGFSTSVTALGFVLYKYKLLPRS

human ALDH-2 enzyme = target: T2, human ALDH-2 enzyme (Homo sapiens, UniProt P05091); conditions: read-out: IC50 ALDH-2
T2 sequence (P05091 18-517): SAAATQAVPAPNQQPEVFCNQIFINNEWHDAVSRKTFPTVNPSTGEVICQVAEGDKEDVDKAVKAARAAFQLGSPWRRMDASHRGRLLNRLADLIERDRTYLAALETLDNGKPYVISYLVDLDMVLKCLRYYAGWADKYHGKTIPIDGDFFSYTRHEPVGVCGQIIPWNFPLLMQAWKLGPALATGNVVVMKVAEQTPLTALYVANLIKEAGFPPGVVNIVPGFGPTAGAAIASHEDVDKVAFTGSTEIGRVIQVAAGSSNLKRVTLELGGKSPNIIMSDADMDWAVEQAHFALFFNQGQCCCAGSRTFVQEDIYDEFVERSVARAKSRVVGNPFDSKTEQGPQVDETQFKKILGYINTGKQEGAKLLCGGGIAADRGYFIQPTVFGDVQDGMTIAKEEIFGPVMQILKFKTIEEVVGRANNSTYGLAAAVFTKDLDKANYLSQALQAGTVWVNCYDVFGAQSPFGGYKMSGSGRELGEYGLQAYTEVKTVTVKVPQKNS

hMAO-B = target: T3, hMAO-B (Homo sapiens, UniProt P27338); conditions: read-out: IC50 hMAO-B
T3 sequence (P27338 1-520): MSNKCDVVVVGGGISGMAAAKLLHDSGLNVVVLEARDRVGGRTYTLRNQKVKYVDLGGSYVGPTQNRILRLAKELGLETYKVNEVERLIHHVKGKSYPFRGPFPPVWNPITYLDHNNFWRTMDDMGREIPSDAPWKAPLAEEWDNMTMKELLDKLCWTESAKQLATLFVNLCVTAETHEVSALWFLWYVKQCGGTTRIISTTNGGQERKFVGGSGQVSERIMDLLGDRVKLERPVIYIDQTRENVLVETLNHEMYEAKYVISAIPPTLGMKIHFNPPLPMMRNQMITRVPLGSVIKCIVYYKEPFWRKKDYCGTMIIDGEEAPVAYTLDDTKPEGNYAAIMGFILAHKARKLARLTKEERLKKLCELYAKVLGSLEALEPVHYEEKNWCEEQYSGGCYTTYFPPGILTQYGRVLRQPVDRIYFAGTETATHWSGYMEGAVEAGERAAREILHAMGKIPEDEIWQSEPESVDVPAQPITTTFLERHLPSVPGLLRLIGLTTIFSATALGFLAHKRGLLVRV

Compound | IC50 (hMAO-A) [µM] | IC50 (human ALDH-2 enzyme) [µM] | IC50 (hMAO-B) [µM]
O=C(NCc1ccc(-c2ccn(COP(=O)(O)O)c(=O)c2)cc1)c1c(Cl)cccc1Cl [compound (2), phosphoric acid mono-(4-{4-[(2,6-dichloro-benzoylamino)-methyl]-phenyl}-2-oxo-2H-pyridin-1-ylmethyl) ester] | > 130 | > 10 | > 130
COCCOc1cc(Cl)c(C(=O)NCc2ccc(-c3cc[nH]c(=O)c3)cc2)c(Cl)c1 [(3), 2,6-dichloro-4-(2-methoxyethoxy)-N-(4-(2-oxo-1,2-dihydropyridin-4-yl)benzyl)benzamide] | > 130 | – | > 130
Cc1cccc(Cl)c1C(=O)NCc1ccc(-c2cc[nH]c(=O)c2)cc1 [(5), 2-chloro-6-methyl-N-(4-(2-oxo-1,2-dihydropyridin-4-yl)benzyl)benzamide] | > 130 | – | > 130
O=C(NCc1ccc(-c2cc[nH]c(=O)c2)cc1)c1cccc(F)c1Cl [(4), 2-chloro-3-fluoro-N-(4-(2-oxo-1,2-dihydropyridin-4-yl)benzyl)benzamide] | > 130 | – | > 130
O=C(NCc1ccc(-c2cc[nH]c(=O)c2)cc1)c1c(Cl)cccc1Cl [compound (1), 2,6-dichloro-N-[4-(2-oxo-1,2-dihydro-pyridin-4-yl)-benzyl]-benzamide] | > 130 | – | > 130
O=C(NCc1ccc(-c2cc[nH]c(=O)c2)cc1)c1c(F)ccc(F)c1Cl [(8), 2-chloro-3,6-difluoro-N-(4-(2-oxo-1,2-dihydropyridin-4-yl)benzyl)benzamide] | > 130 | – | > 130
Cc1cc(-c2ccc(CNC(=O)c3c(Cl)cccc3Cl)cc2)cc(=O)[nH]1 [(7), 2,6-dichloro-N-[4-(6-methyl-2-oxo-1,2-dihydro-pyridin-4-yl)-benzyl]-benzamide] | > 130 | – | > 130
O=C(NCc1ccc(-c2cc[nH]c(=O)c2)cc1F)c1c(Cl)cccc1Cl [(13), 2,6-dichloro-N-(2-fluoro-4-(2-oxo-1,2-dihydropyridin-4-yl)benzyl)benzamide] | > 130 | – | > 130
Cn1ccc(-c2ccc(CNC(=O)c3c(Cl)cccc3Cl)cc2)cc1=O [(10), 2,6-dichloro-N-(4-(1-methyl-2-oxo-1,2-dihydropyridin-4-yl)benzyl)benzamide] | > 130 | – | > 130
O=C(NCc1ccc(-c2cc[nH]c(=O)c2)cc1)c1c(F)cccc1Cl [(12), 2-chloro-6-fluoro-N-(4-(2-oxo-1,2-dihydropyridin-4-yl)benzyl)benzamide] | > 130 | – | > 130
O=C(NCc1ccc(-c2cc[nH]c(=O)c2)cc1)c1c(F)cccc1F [(11), 2,6-difluoro-N-(4-(2-oxo-1,2-dihydropyridin-4-yl)benzyl)benzamide] | > 130 | – | > 130
Cc1cccc(C)c1C(=O)NCc1ccc(-c2cc[nH]c(=O)c2)cc1 [(6), 2,6-dimethyl-N-(4-(2-oxo-1,2-dihydropyridin-4-yl)benzyl)benzamide] | > 130 | – | > 130
Cc1cc(CNC(=O)c2c(Cl)cccc2Cl)ccc1-c1cc[nH]c(=O)c1 [(9), 2,6-dichloro-N-(3-methyl-4-(2-oxo-1,2-dihydropyridin-4-yl)benzyl)benzamide] | > 130 | – | > 130
O=C(NCc1ccc(-c2cc(=O)[nH]cc2F)cc1)c1c(Cl)cccc1Cl [(14), 2,6-dichloro-N-(4-(5-fluoro-2-oxo-1,2-dihydropyridin-4-yl)benzyl)benzamide] | > 130 | – | > 130
